Test results: ChEMBL document CHEMBL6109048, “Innovative design and potential applications of covalent strategy in drug discovery” (Eur J Med Chem, 2025)
Values belong to the compound of their own block, whether it stands above or below them.

Columns and labels:
[1] = target: Cyclin-dependent kinase 3 (Homo sapiens, UniProt Q00526); experiment: Inhibition of recombinant CDK3 (unknown origin)
Cathepsin G = target: T1, Cathepsin G (Homo sapiens, UniProt P08311); experiment: Inhibition of human Cathepsin G
T1 sequence (P08311 whole entry): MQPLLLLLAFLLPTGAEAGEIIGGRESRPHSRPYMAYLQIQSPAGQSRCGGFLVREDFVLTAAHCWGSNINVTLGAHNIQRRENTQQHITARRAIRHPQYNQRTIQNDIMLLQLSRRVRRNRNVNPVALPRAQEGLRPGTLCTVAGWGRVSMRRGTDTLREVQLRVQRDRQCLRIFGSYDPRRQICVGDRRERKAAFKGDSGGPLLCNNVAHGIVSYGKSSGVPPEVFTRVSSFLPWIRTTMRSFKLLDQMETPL

[2] = target: T2, Tyrosine-protein kinase JAK3 (Homo sapiens, UniProt P52333); experiment: Inhibition of JAK3 (unknown origin)
T2 sequence (P52333 whole entry): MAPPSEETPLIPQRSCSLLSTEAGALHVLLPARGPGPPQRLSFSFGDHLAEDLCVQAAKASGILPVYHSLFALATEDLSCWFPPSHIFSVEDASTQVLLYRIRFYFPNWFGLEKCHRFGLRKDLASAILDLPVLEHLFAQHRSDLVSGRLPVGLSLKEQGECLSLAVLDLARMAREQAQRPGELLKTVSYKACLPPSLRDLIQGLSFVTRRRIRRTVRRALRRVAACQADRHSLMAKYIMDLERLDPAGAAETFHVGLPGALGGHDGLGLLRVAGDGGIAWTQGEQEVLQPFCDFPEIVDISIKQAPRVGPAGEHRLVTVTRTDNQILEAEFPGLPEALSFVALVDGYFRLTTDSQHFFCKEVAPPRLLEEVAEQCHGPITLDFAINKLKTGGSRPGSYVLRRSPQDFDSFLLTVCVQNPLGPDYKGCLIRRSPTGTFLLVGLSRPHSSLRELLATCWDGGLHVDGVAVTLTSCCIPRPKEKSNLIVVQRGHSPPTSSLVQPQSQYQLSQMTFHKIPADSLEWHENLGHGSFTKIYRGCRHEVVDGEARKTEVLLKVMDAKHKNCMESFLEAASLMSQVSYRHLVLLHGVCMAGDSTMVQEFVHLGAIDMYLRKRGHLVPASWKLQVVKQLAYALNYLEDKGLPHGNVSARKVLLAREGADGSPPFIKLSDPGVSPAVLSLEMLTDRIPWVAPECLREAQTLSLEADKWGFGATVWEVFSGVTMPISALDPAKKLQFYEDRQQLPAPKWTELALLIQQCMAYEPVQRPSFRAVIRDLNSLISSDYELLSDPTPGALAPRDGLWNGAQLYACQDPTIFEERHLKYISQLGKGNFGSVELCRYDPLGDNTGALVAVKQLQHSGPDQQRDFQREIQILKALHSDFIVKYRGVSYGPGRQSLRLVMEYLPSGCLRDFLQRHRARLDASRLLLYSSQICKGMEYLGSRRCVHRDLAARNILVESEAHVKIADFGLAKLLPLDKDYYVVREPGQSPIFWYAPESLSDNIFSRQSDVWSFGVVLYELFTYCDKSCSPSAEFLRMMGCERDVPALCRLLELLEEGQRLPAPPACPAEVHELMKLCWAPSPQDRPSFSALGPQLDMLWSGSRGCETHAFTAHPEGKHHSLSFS

[3] = target: Epidermal growth factor receptor (Homo sapiens, UniProt P00533); experiment: Inhibition of EGFR (unknown origin) by ADP-Glo kinase assay
Sequence of Epidermal growth factor receptor (P00533 whole entry, the tested form may be a part): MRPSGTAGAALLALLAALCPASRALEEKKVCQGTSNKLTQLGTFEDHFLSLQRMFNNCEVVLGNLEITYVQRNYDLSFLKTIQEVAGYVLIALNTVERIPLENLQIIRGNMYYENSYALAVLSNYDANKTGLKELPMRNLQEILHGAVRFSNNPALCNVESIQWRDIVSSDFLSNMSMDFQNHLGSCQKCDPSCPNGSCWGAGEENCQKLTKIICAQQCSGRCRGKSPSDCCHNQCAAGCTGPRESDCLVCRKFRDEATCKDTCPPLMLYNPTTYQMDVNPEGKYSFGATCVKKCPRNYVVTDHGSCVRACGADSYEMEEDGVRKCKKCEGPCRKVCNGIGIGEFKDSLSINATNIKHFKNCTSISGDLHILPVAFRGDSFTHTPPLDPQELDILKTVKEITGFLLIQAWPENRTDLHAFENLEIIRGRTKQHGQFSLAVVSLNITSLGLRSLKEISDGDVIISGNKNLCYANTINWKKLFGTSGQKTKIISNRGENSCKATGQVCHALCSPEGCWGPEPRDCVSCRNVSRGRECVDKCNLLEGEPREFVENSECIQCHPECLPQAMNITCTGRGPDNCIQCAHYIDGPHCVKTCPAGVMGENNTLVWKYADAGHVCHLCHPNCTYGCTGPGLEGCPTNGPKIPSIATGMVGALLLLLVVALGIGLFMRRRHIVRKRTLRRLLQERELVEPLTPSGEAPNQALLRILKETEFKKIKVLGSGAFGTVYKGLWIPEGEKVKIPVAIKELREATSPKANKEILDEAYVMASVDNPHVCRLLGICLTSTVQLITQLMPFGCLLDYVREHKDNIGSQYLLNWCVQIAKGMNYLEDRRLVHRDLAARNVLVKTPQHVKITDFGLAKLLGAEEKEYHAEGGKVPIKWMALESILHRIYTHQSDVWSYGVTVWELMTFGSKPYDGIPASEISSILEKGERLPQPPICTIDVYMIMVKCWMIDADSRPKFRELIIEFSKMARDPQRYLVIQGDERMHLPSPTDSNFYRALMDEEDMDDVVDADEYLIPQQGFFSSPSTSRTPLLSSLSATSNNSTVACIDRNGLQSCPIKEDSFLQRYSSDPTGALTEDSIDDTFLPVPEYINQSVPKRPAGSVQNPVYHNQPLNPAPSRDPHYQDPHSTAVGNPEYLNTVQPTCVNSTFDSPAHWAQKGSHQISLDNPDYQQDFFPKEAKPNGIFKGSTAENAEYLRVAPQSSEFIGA

[4] = target: Tyrosine-protein kinase ABL1 (Homo sapiens, UniProt P00519); experiment: Inhibition of 6His/SUMO- tagged human ABL1 (229 to 500 residues) extracted from Escherichia coli BL21 (DE3)
Sequence of Tyrosine-protein kinase ABL1 (P00519 whole entry, the tested form may be a part): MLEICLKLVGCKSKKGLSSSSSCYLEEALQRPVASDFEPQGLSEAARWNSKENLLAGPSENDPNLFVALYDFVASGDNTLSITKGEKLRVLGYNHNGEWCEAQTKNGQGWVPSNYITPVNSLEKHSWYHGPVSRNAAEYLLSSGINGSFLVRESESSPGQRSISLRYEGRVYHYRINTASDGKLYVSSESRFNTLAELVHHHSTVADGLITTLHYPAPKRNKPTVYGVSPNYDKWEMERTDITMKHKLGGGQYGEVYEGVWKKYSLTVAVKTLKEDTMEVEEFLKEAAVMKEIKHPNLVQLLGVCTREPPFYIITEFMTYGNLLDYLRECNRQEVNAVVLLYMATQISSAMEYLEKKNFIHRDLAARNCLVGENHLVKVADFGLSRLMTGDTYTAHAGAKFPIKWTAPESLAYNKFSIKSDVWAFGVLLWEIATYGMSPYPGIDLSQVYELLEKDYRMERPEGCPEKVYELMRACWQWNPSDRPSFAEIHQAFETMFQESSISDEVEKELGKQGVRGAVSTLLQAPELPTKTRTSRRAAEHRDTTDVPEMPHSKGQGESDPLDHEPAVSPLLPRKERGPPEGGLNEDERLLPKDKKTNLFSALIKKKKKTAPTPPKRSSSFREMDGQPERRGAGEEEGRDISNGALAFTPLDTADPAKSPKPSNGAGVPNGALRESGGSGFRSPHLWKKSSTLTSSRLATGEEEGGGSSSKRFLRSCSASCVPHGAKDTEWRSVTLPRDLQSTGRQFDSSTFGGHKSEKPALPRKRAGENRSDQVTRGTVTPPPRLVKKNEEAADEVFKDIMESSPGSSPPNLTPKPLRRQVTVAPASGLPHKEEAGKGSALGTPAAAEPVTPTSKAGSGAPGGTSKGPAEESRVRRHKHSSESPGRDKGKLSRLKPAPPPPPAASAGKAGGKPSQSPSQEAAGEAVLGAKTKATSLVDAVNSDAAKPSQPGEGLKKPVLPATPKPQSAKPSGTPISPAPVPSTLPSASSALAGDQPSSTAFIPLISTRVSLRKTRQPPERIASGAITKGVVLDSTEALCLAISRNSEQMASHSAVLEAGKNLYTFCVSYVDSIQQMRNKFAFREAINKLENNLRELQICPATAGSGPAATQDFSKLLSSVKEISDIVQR

[5] = target: Mast/stem cell growth factor receptor Kit (Homo sapiens, UniProt P10721); experiment: Inhibition of c-KIT (unknown origin)
Sequence of Mast/stem cell growth factor receptor Kit (P10721 whole entry): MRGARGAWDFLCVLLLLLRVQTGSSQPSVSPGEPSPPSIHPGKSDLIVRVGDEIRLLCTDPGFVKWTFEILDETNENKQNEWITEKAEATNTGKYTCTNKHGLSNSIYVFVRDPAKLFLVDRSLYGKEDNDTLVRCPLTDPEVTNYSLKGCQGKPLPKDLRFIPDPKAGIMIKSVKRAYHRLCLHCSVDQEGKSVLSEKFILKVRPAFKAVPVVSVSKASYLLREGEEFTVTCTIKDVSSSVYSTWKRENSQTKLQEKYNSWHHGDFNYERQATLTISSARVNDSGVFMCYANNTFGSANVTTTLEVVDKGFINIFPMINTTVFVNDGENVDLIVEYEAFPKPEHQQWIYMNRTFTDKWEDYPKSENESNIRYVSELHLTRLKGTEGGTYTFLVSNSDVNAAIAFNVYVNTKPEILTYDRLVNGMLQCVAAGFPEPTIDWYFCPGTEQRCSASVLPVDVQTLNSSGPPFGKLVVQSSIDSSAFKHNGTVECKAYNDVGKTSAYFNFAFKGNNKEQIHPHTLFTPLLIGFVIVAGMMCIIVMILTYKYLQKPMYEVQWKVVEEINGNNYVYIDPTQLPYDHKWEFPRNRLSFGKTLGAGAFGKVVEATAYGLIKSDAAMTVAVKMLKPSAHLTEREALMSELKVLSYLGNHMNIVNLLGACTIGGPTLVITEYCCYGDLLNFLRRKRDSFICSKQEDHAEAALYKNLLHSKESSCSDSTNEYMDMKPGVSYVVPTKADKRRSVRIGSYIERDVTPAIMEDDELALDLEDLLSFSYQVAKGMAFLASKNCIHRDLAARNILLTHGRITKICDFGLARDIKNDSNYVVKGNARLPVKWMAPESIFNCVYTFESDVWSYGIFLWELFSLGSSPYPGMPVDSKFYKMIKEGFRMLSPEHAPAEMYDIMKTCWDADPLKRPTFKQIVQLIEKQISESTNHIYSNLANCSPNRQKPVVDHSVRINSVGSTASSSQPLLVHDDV

SRSF protein kinase 1 = SRSF protein kinase 1 (Homo sapiens, UniProt Q96SB4); experiment: Inhibition of SRPK1 (unknown origin)
Sequence of SRSF protein kinase 1 (Q96SB4 whole entry): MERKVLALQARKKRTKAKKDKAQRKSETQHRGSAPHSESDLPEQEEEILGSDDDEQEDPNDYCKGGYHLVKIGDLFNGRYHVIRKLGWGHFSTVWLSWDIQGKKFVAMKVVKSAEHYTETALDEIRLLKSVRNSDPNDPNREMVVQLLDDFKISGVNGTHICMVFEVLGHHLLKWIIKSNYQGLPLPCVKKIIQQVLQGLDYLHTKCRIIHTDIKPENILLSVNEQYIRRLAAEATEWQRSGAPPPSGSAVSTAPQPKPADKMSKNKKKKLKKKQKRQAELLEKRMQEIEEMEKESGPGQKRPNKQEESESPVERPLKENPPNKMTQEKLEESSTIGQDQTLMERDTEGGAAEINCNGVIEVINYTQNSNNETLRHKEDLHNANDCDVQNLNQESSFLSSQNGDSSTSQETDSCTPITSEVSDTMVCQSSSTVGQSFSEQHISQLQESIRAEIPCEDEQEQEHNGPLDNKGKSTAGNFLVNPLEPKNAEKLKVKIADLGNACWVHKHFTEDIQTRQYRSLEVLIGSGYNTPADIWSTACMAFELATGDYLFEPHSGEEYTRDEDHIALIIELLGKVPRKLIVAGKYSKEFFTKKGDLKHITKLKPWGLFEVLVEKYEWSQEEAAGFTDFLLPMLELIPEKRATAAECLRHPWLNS

Neutrophil elastase = target: T3, Neutrophil elastase (Homo sapiens, UniProt P08246); experiment: Inhibition of human neutrophil elastase
T3 sequence (P08246 whole entry): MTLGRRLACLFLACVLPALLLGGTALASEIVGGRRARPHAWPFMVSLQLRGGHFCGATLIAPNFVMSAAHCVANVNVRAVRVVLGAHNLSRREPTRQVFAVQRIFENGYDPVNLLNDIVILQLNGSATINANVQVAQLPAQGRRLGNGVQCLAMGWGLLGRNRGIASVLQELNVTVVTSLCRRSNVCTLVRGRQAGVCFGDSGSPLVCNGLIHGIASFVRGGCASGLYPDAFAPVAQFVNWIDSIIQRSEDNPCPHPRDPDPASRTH

Sequence of Cyclin-dependent kinase 3 (Q00526 whole entry): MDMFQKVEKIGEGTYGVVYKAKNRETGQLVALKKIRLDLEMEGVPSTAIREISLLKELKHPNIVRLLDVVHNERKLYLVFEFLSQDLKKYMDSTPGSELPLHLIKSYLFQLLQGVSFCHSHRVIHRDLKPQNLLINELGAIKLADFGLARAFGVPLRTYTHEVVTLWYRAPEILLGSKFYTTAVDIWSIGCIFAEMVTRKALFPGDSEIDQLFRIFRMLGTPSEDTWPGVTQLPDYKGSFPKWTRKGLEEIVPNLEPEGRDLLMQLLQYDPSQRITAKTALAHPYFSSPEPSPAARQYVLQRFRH

Compound: CN(C)C/C=C/C(=O)Nc1ccc(C(=O)N2CCCC(Nc3ncc(Cl)c(-c4c[nH]c5ccccc45)n3)C2)cc1 (centres undefined)
IC50 [1]: 69 nM

Compound: O=S(=O)(F)Oc1ccccc1S(=O)(=O)F
IC50 (Cathepsin G): > 200 nM

Compound: CC#CC1Nc2cc(Nc3nccc(C4CN(C)c5ccccc54)n3)ccc2C(C)(C)O1 (centres undefined)
IC50 [2]: 60 nM

Compound: CCc1cc2c(cc1-c1cc[nH]n1)C(C)(C)C1Cc3cc(C#N)ccc3C1C2=O (centres undefined)
IC50 (SRSF protein kinase 1): 1.15 nM

Compound: O=S(=O)(F)c1ccccc1S(=O)(=O)F
IC50 (Neutrophil elastase): 3300 nM
IC50 (Cathepsin G): 190 nM

Further lines, results first:

IC50 [3]: 48.2 nM
Compound: C#Cc1cc(Nc2ncnc3cc(OCCOC)c(OCCOC)cc23)ccc1C=O

IC50 [4]: 2.4 nM
Compound: C#Cc1cc(OC)c(-c2ccc3nc(NC(=O)NCCO)sc3c2)cc1C=O

IC50 [5]: 2080 nM
Compound: CC#CC1=Nc2cc(NC(=O)Cc3ncc(Oc4ccnc5cc(OC)ccc45)cc3OC)ccc2C(C)(C)O1
